Measurements taken from PubChem BioAssay (NCI).
Several values for one entry are separate records, joined by “and”; a condition that tells them apart may be missing. Identical values can stand only once.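 Interpolation was linear, between the two tested concentrations surrounding the appropriate level; five concentrations were tested over 48 hours in 96-well plates. TGI marks complete inhibition of growth.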

Tests used:
Experiment in all cases: DTP human tumour cell line panel, 48 h
ACHN renal = tested on: ACHN renal
DMS 114 small cell lung = tested on: DMS 114 small cell lung
DMS 273 small cell lung = tested on: DMS 273 small cell lung
HOP-18 NSCLC = tested on: HOP-18 NSCLC
KM20L2 colon = tested on: KM20L2 colon
LXFL 529 NSCLC = tested on: LXFL 529 NSCLC
M19-MEL melanoma = tested on: M19-MEL melanoma
NCI/ADR-RES ovarian = tested on: NCI/ADR-RES ovarian
RPMI-8226 leukemia = tested on: RPMI-8226 leukemia
SF-539 CNS = tested on: SF-539 CNS
SN12C renal = tested on: SN12C renal
SNB-78 CNS = tested on: SNB-78 CNS
DLD-1 colon = tested on: DLD-1 colon
XF 498 CNS = tested on: XF 498 CNS
RXF-631 renal = tested on: RXF-631 renal

Structure (SMILES) | TGI (ACHN renal) | TGI (DMS 114 small cell lung) | TGI (DMS 273 small cell lung) | TGI (HOP-18 NSCLC) | TGI (KM20L2 colon) | TGI (LXFL 529 NSCLC) | TGI (M19-MEL melanoma) | TGI (NCI/ADR-RES ovarian) | TGI (RPMI-8226 leukemia) | TGI (SF-539 CNS) | TGI (SN12C renal) | TGI (SNB-78 CNS) | TGI (DLD-1 colon) | TGI (XF 498 CNS) | TGI (RXF-631 renal)
COc1ccc(Nc2nnc(-c3nsc4ccccc34)s2)cc1 | > 100 µM | > 100 µM | > 100 µM | 2.66 µM | > 100 µM | > 100 µM | > 100 µM | > 100 µM | > 100 µM | > 100 µM | > 100 µM | > 100 µM |  |  | 
COc1ccc2c3c1O[C@]1(C)C34CCN(C)C(C2)C42C=C[C@@]1(OC)c1c(O)ccc(O)c12 | > 100 µM | > 100 µM | > 100 µM | > 100 µM | > 100 µM | > 100 µM |  |  | > 100 µM | > 100 µM |  | > 100 µM | > 100 µM | > 100 µM | 
COc1cc2c(oc(=O)c3c4oc([Si](C)(C)C)cc4cc(OC)c23)c2cccc(OCc3ccccc3)c12 | > 100 µM | > 100 µM | 72.8 µM | 63.8 µM | > 100 µM | > 61.8 µM | > 100 µM |  | > 87 µM | 56.5 µM | > 100 µM | 91.6 µM | > 100 µM | 27 µM | 
CCOC(=O)N1CCN(C=S)CC1 | > 100 µM | > 100 µM | > 100 µM | > 100 µM | > 100 µM | > 100 µM | > 100 µM |  |  | > 100 µM | > 100 µM | > 100 µM | > 100 µM |  | > 100 µM
Cc1ccc2c(c1)[nH]c(=S)n2/C=C1\C(=O)Oc2ccccc2C1=O | > 100 µM |  |  |  |  |  |  | > 100 µM | > 100 µM | > 100 µM | > 100 µM |  |  |  | 
CCOC(=O)/C(C#N)=C\c1ccc(N(CCC(=O)O)CCC(=O)O)c(I)c1 | > 10 µM |  |  |  |  |  |  | > 10 µM | > 10 µM | > 10 µM | > 10 µM |  |  |  | 
CSc1nc(C#N)c(/N=C\N(C)C)n1C | > 100 µM |  |  |  |  |  |  | > 100 µM | > 100 µM | > 100 µM | > 100 µM |  |  |  | 
C=CCOc1cccc(C2(O)c3ccccc3C3=NCCCN32)c1 (configuration not stated) | 26.5 µM |  |  |  |  |  |  | > 75.6 µM | 40.3 µM | 37.6 µM | > 68.8 µM |  |  |  | 
CCOP(=O)(OCC)/C(C#N)=C/c1ncc[nH]1 | > 100 µM |  |  |  |  |  |  | > 100 µM | > 100 µM | 72.9 µM | > 100 µM |  |  |  | 
CC(C)Cn1cnc2c(NCC(C)O)nc3ccccc3c21 (configuration not stated) | > 100 µM |  |  |  |  |  |  | > 100 µM | > 100 µM | > 100 µM | > 100 µM |  |  |  | 
Cn1c(=O)c(Br)c(C=O)n(CCO[N+](=O)[O-])c1=O | 13.2 µM |  |  |  |  |  |  | 4.31 µM | 7.42 µM | 32.8 µM | 17.4 µM |  |  |  | 
Cc1csc2c(=O)n(C3OC(CO)C(O)C3O)c(=O)[nH]c12 (configuration not stated) | > 100 µM |  |  |  |  |  |  | > 100 µM | > 100 µM | > 100 µM | > 100 µM |  |  |  | 
CC(=O)NC1C(OCc2ccccc2)OC(CO)C(O)C1OC(C)C(=O)NC(C(=O)N[C@@H](CCC(=O)NCCNCCNc1c2ccccc2nc2cccc([N+](=O)[O-])c12)C(N)=O)C(C)C (some centres not stated) | 73.5 µM |  |  |  |  |  |  | > 100 µM | 58.7 µM | 45.6 µM | > 100 µM |  |  |  | 
Cc1cc(=O)n(-c2ccccc2C)c(C)n1 | > 100 µM | > 100 µM | > 100 µM | > 100 µM | > 100 µM | > 100 µM | > 100 µM |  |  | > 100 µM | > 100 µM | > 100 µM | > 100 µM |  | > 100 µM
COC(=O)C(=O)C(C(=O)C(=O)Nc1ccc(F)cc1)c1nc2ccc([N+](=O)[O-])cc2[nH]c1=O (configuration not stated) |  |  |  | > 100 µM | > 100 µM | > 100 µM | > 100 µM |  | > 100 µM | > 100 µM | > 100 µM | > 100 µM | > 100 µM | > 100 µM | > 100 µM
COc1ccc(-c2c(C#N)c(N)n(C3OCC(OC(C)=O)C(OC(C)=O)C3OC(C)=O)c(=S)c2C#N)cc1 (configuration not stated) | > 100 µM |  |  |  |  |  |  | > 100 µM | 75.1 µM and 97.5 µM | > 100 µM | > 100 µM |  |  |  | 
Cn1cc2ccccc2c1-c1nc(F)nc(F)n1 | > 100 µM | > 100 µM | > 100 µM |  | > 100 µM | > 100 µM | > 100 µM |  | 90.5 µM | > 100 µM | > 100 µM | > 100 µM | > 100 µM | 90.6 µM | 
COC(=O)c1ccc(C)cc1CC1Cc2cc(C)ccc2C1=O (configuration not stated) | > 100 µM |  |  |  |  |  |  | > 100 µM | > 100 µM | > 100 µM | > 100 µM |  |  |  | 
CCCCOC(=O)C1C2CCC(O2)C1C(=O)OCCCC (configuration not stated) | > 100 µM | > 55.7 µM | > 100 µM | > 100 µM | > 81.2 µM |  | > 100 µM |  | > 68.5 µM | > 100 µM | > 100 µM | > 100 µM | > 87.5 µM | > 100 µM | 
C=CCNC(=O)NC(=O)CSC1=NNC2(C(=O)N1)c1ccccc1-c1ccccc12 | > 10 µM |  |  |  |  |  |  | > 10 µM | > 10 µM | > 10 µM | > 10 µM |  |  |  | 
O=C(CN1CCCCC1)Nc1ccc2sc3ccccc3c(=O)c2n1 | 33.4 µM |  |  |  |  |  |  | 36.1 µM | 45.1 µM | 31.6 µM | 68.3 µM |  |  |  | 
CNc1ncnc2c1ncn2C1C=CC(COS(N)(=O)=O)C1 (configuration not stated) | > 100 µM |  |  |  |  |  |  | > 100 µM | > 100 µM | > 100 µM | > 100 µM |  |  |  | 
Cn1cc(C(=O)NCCC(=N)N)cc1NC(=O)C1=[N+](C)C=C(NC(=O)c2cccc(C(=O)NC3=CC(C(=O)Nc4cc(C(=O)NCCC(=N)N)cn4C)=[N+](C)C3)c2)C1 | > 100 µM | > 100 µM | > 100 µM | > 100 µM | > 100 µM | > 100 µM | > 100 µM |  | > 100 µM | > 100 µM | > 100 µM |  | > 100 µM | > 100 µM | 
